Reference: patent US8895624B2, “Treatment of osteoporosis” (Haoma Medica Ltd., priority 2009, dated 2014)

Assays:
[1] = system: cultured cell lines derived from skin and liver; assay: Cell toxicity in cultured cell lines derived from skin and liver; assay type: cell-based
[2] = system: osteoblast-like MG63 cells; assay: Viability of MG63 cells by uptake of 3H labelled Thymine in the formation of DNA; assay type: cell-based, human; conditions: concentrations 10^−8M to 10^−5M, compared with control samples
[3] = system: bone loss in neurectomized limbs; assay: Disuse osteoporosis induced by sciatic neurectomy, tibial μCT; assay type: in vivo, mice
Description: Disuse osteoporosis was induced by right side sciatic neurectomy (SN). Mice were anaesthetized with oxygen and halothane and SN was achieved by resecting a 3-4 mm segment of the sciatic nerve posterior to the hip joint. On the 4th day after surgery mice were treated with either; control or NaQuinate for 5 days/week for 2 weeks. The tibias of both limbs were analysed by micro computerized tomography (μCT).

[4] = system: bone loss induced by oviarectomy; assay: Oviarectomized (oestrogen deficient) mouse model of osteoporosis, tibial μCT; assay type: in vivo, C57Black mice; conditions: OVx mice, 15 μg/mouse/day intraperitoneally, 5 weeks
Source text: The most widely accepted animal model of osteoporosis is the oestrogen deficient rodent, with this model the effect of the present invention has been tested in vivo. All procedures were done under Home Office licence and full local ethical requirements. C57Black mice were randomly assigned to receive total bi-lateral oviarectomy or sham operation. The oviarectomized animals were randomly assigned for treatment or to an untreated control group. At operation eight animals were in each group. • The mice were housed under standard animal house conditions with 12 hour light dark cycles in temperature and humidity controlled conditions for 5 weeks. The Sham and control oviarectomized mice received 10% ethanol in saline vehicle injections intraperitoneally once per day. The NaQuinate treated mice received a single injection (15 μg/mouse/day) administered in 10% ethanol in saline injections intraperitoneally. All mice received the same volume of test sample and this complied with Home Office regulations. • After 5 weeks treatment the animals were sacrificed by a Schedule 1 method and the tibiae removed for X-ray micro-Computer Tomography (μCT) imaging analyses.

[5] = system: interleukin-6 release from MG63 osteoblast-like cells; assay: Inhibition of E. coli LPS-stimulated interleukin-6 release from cultured MG63 osteoblast-like cells; assay type: cell-based, human; conditions: E. coli LPS 25 ng/ml
Source text: 1. There are numerous factors that regulate bone physiology. Targeting the agents that induce bone resorption by recruiting/activating the cells that induce bone loss (the osteoclasts) has had limited exposure/efficacy. Most current therapies target the osteoclasts once they have been recruited or activated. A family of locally (bone) produced proteins called cytokines can induce a range of stimuli that can affect osteoclast number/activity. One of these cytokines is called interleukin-6 (IL-6). IL-6 is released by many cell types, including the bone forming cells (osteoblasts), following challenge from a range of agonists. These agonists can be physiological (1,25(OH)2 vitamin D3, interleukin-1β) or pathophysiological (interleukin-1β; bacterial endotoxin). • In vitro studies focussed on an immortalised osteoblast-like cell line called MG63 that was derived from a human osteosarcoma (bone cancer). These cells were cultured and screened for their ability to synthesize and release a range of cytokines including IL-6. Due to the well described activities of IL-6 induced bone loss this cytokine was focussed upon (see Manolagas S. C., Ann N Y Acad. Sci. 1998 May 1; 840:194-204). […] IL-6 can be measured by commercial immunoassays, for example, the QuantiGlo IL-6 Immunoassay from R&D systems.

[6] = neurectomized limbs, treated 5 days/week for 2 weeks
[7] = normal (non-neurectomized) bone

SMILES | cell toxicity [1] | DNA synthesis (3H-Thymine incorporation) of MG63 cells [2] | bone loss assessed by % bone volume [3, 6] | bone loss assessed by trabecular number [3, 6] | normal bone trabecular number [3, 7] | normal bone volume [3, 7] | percentage bone content (bone volume) in the trabecular compartment [4] | trabecular number, tibial trabecular compartment [4] | inhibition of LPS-stimulated interleukin-6 release (in words) [5]
CC1=C(C/C=C(\C)CCC(=O)O)C(=O)c2ccccc2C1=O [NaQuinate (VIII), (4E)-6-(1,4-dihydro-2-methyl-1,4-dioxonaphthalen-3-yl)-4-methylhex-4-enoic acid] | lack of cell toxicity | continue normal DNA synthesis under all concentrations tested | inhibits bone loss in neurectomized limbs | inhibits bone loss in neurectomized limbs | does not alter normal bone trabecular number | does not alter normal bone volume | completely attenuated the bone loss | completely attenuated the bone loss | 
CC1=C(CCCCCCCC(=O)O)C(=O)c2ccccc2C1=O [XV, 8-(1,4-dihydro-2-methyl-1,4-dioxonaphthalen-3-yl)octanoic acid] |  |  |  |  |  |  |  |  | completely inactive
CC1=C(C/C=C(\C)C(=O)O)C(=O)c2ccccc2C1=O [KCAT-5C (XIV), (2E)-4-(1,4-dihydro-2-methyl-1,4-dioxonaphthalen-3-yl)-2-methylbut-2-enoic acid] |  |  |  |  |  |  |  |  | only active inhibiting Interleukin-6 from cultured MG63 osteoblast-like cells at very high concentrations (10^−5 M)
